Laboratory results reported in PubChem BioAssay AID2060485 (Molecular Pharmacology Branch, DTP, NCI, 2025).

Tested on: A375 multi-cell spheroids with HUVEC/MSC, viability
Assay: Anticancer human tumor A375 cell line growth inhibition [GQUAD];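 further: spheroids exposed to compounds for seven days before readout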
Conditions: for IC50: curve of first compound; for viability, T/C: stronger effect = lower value
In short: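 Multi-cell-type spheroids of tumor cells with HUVEC and mesenchymal stem cells, treated with drug combinations. Concentrations descend in half-log steps from near clinical Cmax, or from 10 microM where Cmax is unknown; viability read-out.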

[1] = second compound 0.0316 µM, first compound 0.0316 µM
[2] = second compound 0.0316 µM, first compound 0.316 µM
[3] = second compound 0.1 µM, first compound 0.0316 µM
[4] = second compound 0.1 µM, first compound 0.316 µM
[5] = second compound 0.316 µM, first compound 0.0316 µM
[6] = second compound 0.316 µM, first compound 0.316 µM
[7] = second compound 1 µM, first compound 0.0316 µM
[8] = second compound 1 µM, first compound 0.316 µM
[9] = second compound 3.16 µM, first compound 0.0316 µM
[10] = second compound 3.16 µM, first compound 0.316 µM
[11] = second compound 10 µM, first compound 0.0316 µM
[12] = second compound 10 µM, first compound 0.316 µM

C#Cc1c(F)ccc2cc(O)cc(-c3ncc4c(N5CC6CCC(C5)N6)nc(OCC56CCCN5CC(F)C6)nc4c3F)c12 (centres undefined) + Cc1cnc(CNC(=O)c2c(=O)c3ccc(N4CCCN(C)CC4)nc3n3c2sc2ccccc23)cn1
IC50 (second compound 0.0316 µM): > 10000 nM
IC50 (second compound 0.1 µM): > 10000 nM
IC50 (second compound 0.316 µM): > 10000 nM
IC50 (second compound 1 µM): < 31.6 nM
IC50 (second compound 3.16 µM): < 31.6 nM
IC50 (second compound 10 µM): < 31.6 nM
viability, T/C [1]: 106%
viability, T/C (second compound 0.0316 µM, first compound 0.1 µM): 109%
viability, T/C [2]: 121%
viability, T/C (second compound 0.0316 µM, first compound 1 µM): 120%
viability, T/C (second compound 0.0316 µM, first compound 3.16 µM): 117%
viability, T/C (second compound 0.0316 µM, first compound 10 µM): 117%
viability, T/C [3]: 79%
viability, T/C (second compound 0.1 µM, first compound 0.1 µM): 74.6%
viability, T/C [4]: 93.8%
viability, T/C (second compound 0.1 µM, first compound 1 µM): 85.1%
viability, T/C (second compound 0.1 µM, first compound 3.16 µM): 88.3%
viability, T/C (second compound 0.1 µM, first compound 10 µM): 96%
viability, T/C [5]: 59.1%
viability, T/C (second compound 0.316 µM, first compound 0.1 µM): 51.8%
viability, T/C [6]: 64.3%
viability, T/C (second compound 0.316 µM, first compound 1 µM): 55.1%
viability, T/C (second compound 0.316 µM, first compound 3.16 µM): 58.6%
viability, T/C (second compound 0.316 µM, first compound 10 µM): 47.9%
viability, T/C [7]: 42.6%
viability, T/C (second compound 1 µM, first compound 0.1 µM): 42.6%
viability, T/C [8]: 39.4%
viability, T/C (second compound 1 µM, first compound 1 µM): 40%
viability, T/C (second compound 1 µM, first compound 3.16 µM): 37.4%
viability, T/C (second compound 1 µM, first compound 10 µM): 38.8%
viability, T/C [9]: 40.6%
viability, T/C (second compound 3.16 µM, first compound 0.1 µM): 36.9%
viability, T/C [10]: 36.6%
viability, T/C (second compound 3.16 µM, first compound 1 µM): 34.7%
viability, T/C (second compound 3.16 µM, first compound 3.16 µM): 36.3%
viability, T/C (second compound 3.16 µM, first compound 10 µM): 33.7%
viability, T/C [11]: 25.7%
viability, T/C (second compound 10 µM, first compound 0.1 µM): 28.3%
viability, T/C [12]: 33.2%
viability, T/C (second compound 10 µM, first compound 1 µM): 34%
viability, T/C (second compound 10 µM, first compound 3.16 µM): 33.2%
viability, T/C (second compound 10 µM, first compound 10 µM): 32.3%

CC[C@@]1(O)C(=O)OCc2c1cc1n(c2=O)Cc2cc3c(CN(C)C)c(O)ccc3nc2-1 + CN(C)c1ccc(Nc2c3ccc(NC(=O)CCN4CCCC4)cc3nc3cc(NC(=O)CCN4CCCC4)ccc23)cc1
IC50 (second compound 0.0316 µM): 44.7 nM
IC50 (second compound 0.1 µM): 45.3 nM
IC50 (second compound 0.316 µM): 39.6 nM
IC50 (second compound 1 µM): 47.4 nM
IC50 (second compound 3.16 µM): 49.5 nM
IC50 (second compound 10 µM): 45.9 nM
viability, T/C (second compound 0.0316 µM, first compound 0.000999 µM): 104%
viability, T/C (second compound 0.0316 µM, first compound 0.00316 µM): 107%
viability, T/C (second compound 0.0316 µM, first compound 0.00999 µM): 104%
viability, T/C [1]: 63.4%
viability, T/C (second compound 0.0316 µM, first compound 0.0999 µM): 18.5%
viability, T/C [2]: 9.04%
viability, T/C (second compound 0.1 µM, first compound 0.000999 µM): 112%
viability, T/C (second compound 0.1 µM, first compound 0.00316 µM): 105%
viability, T/C (second compound 0.1 µM, first compound 0.00999 µM): 96.2%
viability, T/C [3]: 64.2%
viability, T/C (second compound 0.1 µM, first compound 0.0999 µM): 20.4%
viability, T/C [4]: 10.9%
viability, T/C (second compound 0.316 µM, first compound 0.000999 µM): 101%
viability, T/C (second compound 0.316 µM, first compound 0.00316 µM): 107%
viability, T/C (second compound 0.316 µM, first compound 0.00999 µM): 108%
viability, T/C [5]: 58%
viability, T/C (second compound 0.316 µM, first compound 0.0999 µM): 19.8%
viability, T/C [6]: 10.9%
viability, T/C (second compound 1 µM, first compound 0.000999 µM): 114%
viability, T/C (second compound 1 µM, first compound 0.00316 µM): 106%
viability, T/C (second compound 1 µM, first compound 0.00999 µM): 102%
viability, T/C [7]: 67%
viability, T/C (second compound 1 µM, first compound 0.0999 µM): 18.9%
viability, T/C [8]: 9.06%
viability, T/C (second compound 3.16 µM, first compound 0.000999 µM): 103%
viability, T/C (second compound 3.16 µM, first compound 0.00316 µM): 102%
viability, T/C (second compound 3.16 µM, first compound 0.00999 µM): 102%
viability, T/C [9]: 68.8%
viability, T/C (second compound 3.16 µM, first compound 0.0999 µM): 20.6%
viability, T/C [10]: 12.7%
viability, T/C (second compound 10 µM, first compound 0.000999 µM): 102%
viability, T/C (second compound 10 µM, first compound 0.00316 µM): 103%
viability, T/C (second compound 10 µM, first compound 0.00999 µM): 107%
viability, T/C [11]: 63.2%
viability, T/C (second compound 10 µM, first compound 0.0999 µM): 22.4%
viability, T/C [12]: 9.58%
